Non-standard residues stand in square brackets, D forms with d. Residues, ends and D or L forms follow the SMILES beside them. No end group written: not given here. pS = N[C@@H](COP(=O)(O)O)C(=O)O

As a reminder, the Kd is the concentration at which binding is half-saturated. Read a low Kd as higher affinity.

In assay [1] the target is T1, PKCιKD-2P (primed human PKC-iota kinase domain) (Homo sapiens, UniProt P41743, C595S).
T1 construct: encoding residues 248–596 (GenBank: NM_002740.5); GST (followed by a 3C protease site) (N, cleaved yes); made in house; host or cells: Hi5 insect cells, baculovirus, co-infected with a PDK-1 virus
T1 sequence (P41743 248-596 C595S): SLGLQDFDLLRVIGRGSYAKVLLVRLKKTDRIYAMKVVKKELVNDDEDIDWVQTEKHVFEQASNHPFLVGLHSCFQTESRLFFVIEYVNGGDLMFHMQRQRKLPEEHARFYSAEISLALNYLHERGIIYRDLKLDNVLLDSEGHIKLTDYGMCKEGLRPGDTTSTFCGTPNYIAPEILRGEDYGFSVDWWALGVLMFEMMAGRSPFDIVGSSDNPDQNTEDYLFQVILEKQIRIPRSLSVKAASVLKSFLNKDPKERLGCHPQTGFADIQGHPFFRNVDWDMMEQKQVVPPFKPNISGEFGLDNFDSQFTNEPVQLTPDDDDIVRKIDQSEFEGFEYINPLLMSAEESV
In words: In vitro kinase assay (ADP Quest), peptide as substrate, Michaelis-Menten kinetics. The settings on record: for increase of apparent kcat relative to wild-type Par3CR3: phosphorylation by PKCιKD-2P, Figures 5A and 5C. In kind it is biochemical. On the procedure: (§1) The ADP Quest kit (DiscoveRx) was used to determine the kcat app and KM app values for ATP against the PKCιKD-1P and PKCιKD-2P using a series of synthetic peptide substrates as described by [Kjaer et al. (2013)]. The reactions were measured every 2 min for 30 min in a 384-well plate using a Safire^2 plate reader (Tecan). The kinetic constants were determined by fitting the data to the Michaelis-Menten equation. Data are represented as mean ± SEM. Fluorescence anisotropy assays were performed to determine the KD for each peptide labeled with a fluorescein tag following standard protocols using a Safire^2 plate reader (Tecan). The anisotropy values were normalized and the KD was determined using non-linear regression. All experiments were performed in triplicate and for at least three independent protein preparations.
The ADP Quest kit (DiscoveRx) was used to determine the kcat app and Km app values for ATP against the PKCι KD-1P and PKCι KD-2P. The assay uses a coupled reaction to convert ADP to a product that has a fluorescence excitation at 530 nm and emission at 590 nm. Several synthetic peptide substrates were used including a model peptide […]
(§2) ([…]) derived from a PKCε pseudo-substrate sequence with an alanine-serine change. We found this peptide to be an efficient substrate peptide for aPKC isozymes. Peptides from human Par3CR3 (residues 816-835) and F-X-R short […]
peptide ([…]) related to the Nishikawa and co-workers consensus were also used in the study (Nishikawa et al., 1997). For the kcat app and Km app reactions, the ATP concentration ranged from 0-200 µM, while the synthetic peptide substrates were kept constant at 200 µM to avoid product inhibition. The reactions were measured every two minutes for 30 minutes in a 384-well plate using a Safire 2 plate reader (Tecan). The kinetic constants were determined by fitting the data to Michaelis–Menten equation using the graphics program Prism (GraphPad Prism, version 5.0d, GraphPad Software). […]

Assay [2] deals with T1, PKCιKD-2P (primed human PKC-iota kinase domain). As to the kind of experiment: Fluorescence anisotropy binding assay with fluorescein-labelled peptides. As to conditions: for Kd: Figure S4D, fluorescein-labelled εPSS peptides. As for the experimental part: as §1, with “preparations. […]” for “preparations.”
Several synthetic peptide substrates were used including a model peptide […]
as §2
peptide ([…]) related to the Nishikawa and co-workers consensus were also used in the study (Nishikawa et al., 1997). […]
The kinetic constants were determined by fitting the data to […]
Fluorescence anisotropy binding assays
Fluorescence anisotropy assays were performed to determine the Kd for each peptide following a previously described protocol (Guettler et al., 2008). Binding assays were performed in 20 mM Tris pH 7.5, 50 mM NaCl, 5% glycerol and 0.5 mM TCEP. The reaction mixtures contained fluorescein labelled peptides at a constant 50 nM concentration, while the protein concentration ranged from 0-200 µM. The 20 µl reactions were carried out in 384-well plate and measured after 30 minutes on the Safire2 plate reader (Tecan) with the excitation at 470 nm and emission at 525 nm. […]

For assay [3], the target named is T2, human PKC-iota kinase domain, primed active form (PKCιKD-2P) (human, UniProt P41743 248-596, phosphothreonine at 412 and 564 (pT412, pT564)).
T2 chain: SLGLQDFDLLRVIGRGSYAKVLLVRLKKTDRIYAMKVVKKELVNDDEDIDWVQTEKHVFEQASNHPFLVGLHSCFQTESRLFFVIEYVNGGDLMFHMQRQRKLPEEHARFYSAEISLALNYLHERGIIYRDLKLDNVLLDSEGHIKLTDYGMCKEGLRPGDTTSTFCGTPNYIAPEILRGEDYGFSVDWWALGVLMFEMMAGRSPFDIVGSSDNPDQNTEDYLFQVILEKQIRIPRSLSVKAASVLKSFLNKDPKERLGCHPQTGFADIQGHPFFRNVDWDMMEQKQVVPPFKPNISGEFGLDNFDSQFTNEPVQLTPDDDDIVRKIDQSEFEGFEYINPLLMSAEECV
As to the kind of experiment: FP.

Assay [4] has as its target T3, human PKC-iota kinase domain, primed active form (PKCιKD-2P) (human, UniProt P41743 248-596, phosphothreonine at 412 and 564 (pT412, pT564)).
T3 sequence (looked up): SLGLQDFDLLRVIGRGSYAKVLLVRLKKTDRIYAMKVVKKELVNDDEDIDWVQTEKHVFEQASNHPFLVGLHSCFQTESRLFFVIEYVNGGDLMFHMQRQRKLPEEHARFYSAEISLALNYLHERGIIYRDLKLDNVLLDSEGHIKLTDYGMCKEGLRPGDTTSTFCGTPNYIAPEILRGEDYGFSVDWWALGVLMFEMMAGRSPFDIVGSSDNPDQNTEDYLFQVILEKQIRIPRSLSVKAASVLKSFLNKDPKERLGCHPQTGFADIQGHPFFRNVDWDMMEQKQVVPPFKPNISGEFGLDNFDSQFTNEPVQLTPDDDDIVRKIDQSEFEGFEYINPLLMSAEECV
As to the kind of experiment: cell-based or functional assay.

On to `CSCC[C@H](NC(=O)[C@H](CO)NC(=O)[C@H](CCC(N)=O)NC(=O)[C@H](CCCNC(=N)N)NC(=O)CNC(=O)[C@H](Cc1ccccc1)NC(=O)CNC(=O)[C@H](CCC(=O)O)NC(=O)[C@H](CCCNC(=N)N)NC(=O)[C@H](CCC(N)=O)NC(=O)[C@H](Cc1ccccc1)NC(=O)[C@H](C)NC(=O)[C@@H](N)CC(C)C)C(=O)N[C@@H](CO)C(=O)N[C@@H](CCC(=O)O)C(=O)N[C@@H](C)C(=O)N[C@@H](C)C(=O)N[C@H](C(=O)N[C@@H](CCCCN)C(=O)N[C@@H](CCC(N)=O)C(=O)O)[C@@H](C)O` [Par-3CR3AAT] (H-LAFQREGFGRQSMSEAATKQ-OH; N-terminus and C-terminus assumed), for which, in assay [1], the “increase of apparent kcat relative to wild-type Par3CR3” value is given as 18 fold.
Still for that read-out and setting: then `CSCC[C@H](NC(=O)[C@H](CO)NC(=O)[C@H](CCC(N)=O)NC(=O)[C@H](CCCNC(=N)N)NC(=O)CNC(=O)[C@H](Cc1ccccc1)NC(=O)CNC(=O)[C@H](CCC(=O)O)NC(=O)[C@H](C)NC(=O)[C@H](CCC(N)=O)NC(=O)[C@H](C)NC(=O)[C@H](C)NC(=O)[C@@H](N)CC(C)C)C(=O)N[C@@H](CO)C(=O)N[C@@H](CCC(=O)O)C(=O)N[C@@H](CCCCN)C(=O)N[C@@H](CCCNC(=N)N)C(=O)N[C@H](C(=O)N[C@@H](CCCCN)C(=O)N[C@@H](CCC(N)=O)C(=O)O)[C@@H](C)O` [Par-3CR3AXA] (H-LAAQAEGFGRQSMSEKRTKQ-OH; N-terminus and C-terminus assumed), with 57 fold.
For `CSCC[C@H](NC(=O)[C@H](COP(=O)(O)O)NC(=O)[C@H](CCC(N)=O)NC(=O)[C@H](CCCNC(=N)N)NC(=O)CNC(=O)[C@H](Cc1ccccc1)NC(=O)CNC(=O)[C@H](CCC(=O)O)NC(=O)[C@H](CCCNC(=N)N)NC(=O)[C@H](CCC(N)=O)NC(=O)[C@H](Cc1ccccc1)NC(=O)[C@H](C)NC(=O)[C@@H](N)CC(C)C)C(=O)N[C@@H](CO)C(=O)N[C@@H](CCC(=O)O)C(=O)N[C@@H](CCCCN)C(=O)N[C@@H](CCCNC(=N)N)C(=O)N[C@H](C(=O)N[C@@H](CCCCN)C(=O)N[C@@H](CCC(N)=O)C(=O)O)[C@@H](C)O` [Par-3CR3pS827] (H-LAFQREGFGRQ[pS]MSEKRTKQ-OH; N-terminus and C-terminus assumed), the “interaction with / affinity for PKCιKD-2P (in words)” value in assay [2] is “two orders of magnitude lower”.
Consider `CSCC[C@H](NC(=O)[C@H](C)NC(=O)[C@H](CCC(N)=O)NC(=O)[C@H](CCCNC(=N)N)NC(=O)CNC(=O)[C@H](Cc1ccccc1)NC(=O)CNC(=O)[C@H](CCC(=O)O)NC(=O)[C@H](CCCNC(=N)N)NC(=O)[C@H](CCC(N)=O)NC(=O)[C@H](Cc1ccccc1)NC(=O)[C@H](C)NC(=O)[C@@H](N)CC(C)C)C(=O)N[C@@H](CO)C(=O)N[C@@H](CCC(=O)O)C(=O)N[C@@H](CCCCN)C(=O)N[C@@H](CCCNC(=N)N)C(=O)N[C@H](C(=O)N[C@@H](CCCCN)C(=O)N[C@@H](CCC(N)=O)C(=O)O)[C@@H](C)O` [S827A] (H-LAFQREGFGRQAMSEKRTKQ-OH; N-terminus and C-terminus assumed), for which, in assay [1] (Figure 5A, ADP Quest, read every 2 min for 30 min, Michaelis-Menten fit, mean ± SEM), the kcat app amounted to 0.0167 ± 0.0017 s⁻¹.
For `CSCC[C@H](NC(=O)[C@H](CCCNC(=N)N)NC(=O)[C@@H](N)CCC(=O)O)C(=O)N[C@@H](CCCNC(=N)N)C(=O)N1CCC[C@H]1C(=O)N[C@@H](CCCNC(=N)N)C(=O)N[C@@H](CCCCN)C(=O)N[C@@H](CCCNC(=N)N)C(=O)N[C@@H](CCC(N)=O)C(=O)NCC(=O)N[C@@H](CO)C(=O)N[C@H](C(=O)N[C@@H](CCCNC(=N)N)C(=O)N[C@@H](CCCNC(=N)N)C(=O)N[C@@H](CCCNC(=N)N)C(=O)N[C@@H](Cc1ccccc1)C(=O)N[C@@H](Cc1c[nH]cn1)C(=O)N[C@@H](CCC(N)=O)C(=O)N[C@H](C(=O)N[C@@H](CC(N)=O)C(=O)O)C(C)C)C(C)C` [ε +5Fpss] (H-ERMRPRKRQGSVRRRFHQVN-OH), the Kd in assay [2] is 16.4 ± 3.5 µM.
`CSCC[C@H](NC(=O)[C@H](CCCNC(=N)N)NC(=O)[C@@H](N)CCC(=O)O)C(=O)N[C@@H](CCCNC(=N)N)C(=O)N1CCC[C@H]1C(=O)N[C@@H](Cc1ccccc1)C(=O)N[C@@H](CCCCN)C(=O)N[C@@H](CCCNC(=N)N)C(=O)N[C@@H](CCC(N)=O)C(=O)NCC(=O)N[C@@H](CO)C(=O)N[C@H](C(=O)N[C@@H](CCCNC(=N)N)C(=O)N[C@@H](CCCNC(=N)N)C(=O)N[C@@H](CCCNC(=N)N)C(=O)N[C@H](C(=O)N[C@@H](Cc1c[nH]cn1)C(=O)N[C@@H](CCC(N)=O)C(=O)N[C@H](C(=O)N[C@@H](CC(N)=O)C(=O)O)C(C)C)C(C)C)C(C)C` [ε -5Fpss] (H-ERMRPFKRQGSVRRRVHQVN-OH) gave a Kd in assay [2] of 1.8 ± 0.1 µM.
As to `CSCC[C@H](NC(=O)[C@H](CCCNC(=N)N)NC(=O)[C@@H](N)CCC(=O)O)C(=O)N[C@@H](CCCNC(=N)N)C(=O)N1CCC[C@H]1C(=O)N[C@@H](CCCNC(=N)N)C(=O)N[C@@H](CCCCN)C(=O)N[C@@H](CCCNC(=N)N)C(=O)N[C@@H](CCC(N)=O)C(=O)NCC(=O)N[C@@H](CO)C(=O)N[C@H](C(=O)N[C@@H](CCCNC(=N)N)C(=O)N[C@@H](CCCNC(=N)N)C(=O)N[C@@H](CCCNC(=N)N)C(=O)N[C@H](C(=O)N[C@@H](Cc1c[nH]cn1)C(=O)N[C@@H](CCC(N)=O)C(=O)N[C@H](C(=O)N[C@@H](CC(N)=O)C(=O)O)C(C)C)C(C)C)C(C)C` [εpss, reference compound] (H-ERMRPRKRQGSVRRRVHQVN-OH), in assay [2], binding was put at a Kd of 13.3 ± 2.1 µM.
For the molecule “A-X-A + A-A-T: Par3CR3 combining both site 1 and site 3 mutations (LAAQAEGFGRQSMSEAATK)”, the “interaction with / affinity for PKCιKD-2P (in words)” value in assay [2] is “no measurable interaction”. Also, the “phosphorylation as substrate by PKCι in vitro (in words)” value in assay [1] (in vitro kinase assay) is “not detectably phosphorylated”.
The molecule LAFQREGFGRQ[pS]MSEKRTK (also: fluorescein label (position not given here)) [phospho-S827 Par3 peptide (PKCι reaction product)] gave a dissociation constant (Kd) in assay [3] of 115 µM.
In turn, LAAQAEGFGRQSMSEKRTK (also: fluorescein label (position not given here)) [Par3CR3 A-X-A mutant peptide (F-Q-R to A-Q-A, site 1 affinity arm)] displayed a Kd in assay [3] of 228 µM. The “fold increase of the apparent kcat of Par3CR3 phosphorylation by PKCιKD-2P, in vitro kinase assay” value in assay [4] amounted to 57 fold.

Source of the values: publication PMC4998004, “aPKC Inhibition by Par3 CR3 Flanking Regions Controls Substrate Access and Underpins Apical-Junctional Polarization” (Developmental Cell, 2016).
